Reference: patent EP0407583A1, “DERIVATIVES OF DICHLOR[…] ACYLAMIDO[…] AND INSECTICIDAL, FU[…] HEMATOCIDAL PREPARATIONS BASED ON THEM” (priority 1989, dated 1990)

Tests used:
Rhyzoctonia violaceae [1] = test: Inhibition of phytopathogenic fungi growth, laboratory test on potato-dextrose agar; format: cell-based; conditions: active principle 0.01 % by mass in potato-dextrose agar
Procedure: (§1) A fungicidal composition based on this compound was prepared in the form of a 0.01% solution thereof in distilled water. A fungicidal action of the composition, according to the invention, was tested for inhibition of vegetative fungi growth such as Fusarium moniliforme, Ventura inaequalis, Rhyzoctonia ciolaceae, Botrytis cinereae, Verticillium albo-atrum, Diplodia zeae, Fusarium oxysporum, Rhoma betae, Rhyzoctonia aderholdii, Aspergillus niger, Alternaria sobani, Botrytis allii, Aspergillus fumigatis, Fusarium culmorum, Penicillium cyclopium affecting potato, sugar beet, cotton seeds either in laboratory or field conditions. For testing it to the Petri dishes containing potato-dextrose agar the composition of the invention was.added at the concentration of an active principle of 0.01 % by mass. The Petri dishes containing the same agar culture were inoculated with a mycelium of phytopathogenic fungi. For control dishes the phytopathogenic fungi were inoculated on agar without using the composition of the invention. A fungicidal effect of the composition, according to the invention was tested in comparison with the known fungicidal compositions based on 2,3-dichloro-1,4-naphthoquinone, zinc N,N'-ethylene-bis-dithiocarbamate and tetramethylthiuram disulphide.

Venturia inaequalis [2] = test: as above; format: cell-based; conditions: active principle 0.01 % by mass in potato-dextrose agar
Procedure: as §1

Verticillium albo-atrum [3] = test: as above; format: cell-based; conditions: active principle 0.01 % by mass in potato-dextrose agar
Procedure: as §1

Botrytis cinereae [4] = test: as above; format: cell-based; conditions: active principle 0.01 % by mass in potato-dextrose agar
Procedure: as §1

Fusarium moniliforme [5] = test: as above; format: cell-based; conditions: active principle 0.01 % by mass in potato-dextrose agar
Procedure: as §1

Rhyzoctonia violaceae [6] = test: Inhibition of phytopathogenic fungi, field test on affected potato plants; format: in vivo; conditions: 5 m^2 plots of affected potato plants sprayed
Text: (§2) For field tests the plots of 5 m^2 in size with potato plants affected by Fusarium moniliforme, Venturia inaequalis, Rhyzoctonia violaceae, Botrytis cinereae, Verticillium albo-atrum, Diplodia zeae, Fusarium oxysporum, Rhoma betae, Rhyzoctonia aderholdii, Aspergillus niger, Alternaria sobani, Botrytis allii, Aspergillus fumigatis, Fusarium culmorum, Penicillium cyclopium were sprayed with the fungicide of the invention. To compare, the similar plots of the affected potato plants were aprayed with the known compositions indicated above.

Venturia inaequalis [7] = test: as above; format: in vivo; conditions: 5 m^2 plots of affected potato plants sprayed
Text: as §2

Verticillium albo-atrum [8] = test: as above; format: in vivo; conditions: 5 m^2 plots of affected potato plants sprayed
Text: as §2

Botrytis cinereae [9] = test: as above; format: in vivo; conditions: 5 m^2 plots of affected potato plants sprayed
Text: as §2

Fusarium moniliforme [10] = test: as above; format: in vivo; conditions: 5 m^2 plots of affected potato plants sprayed
Text: as §2

Aspergillus niger [11] = test: Inhibition of phytopathogenic fungi growth, laboratory test on potato-dextrose agar; format: cell-based; conditions: active principle 0.01 % by mass in potato-dextrose agar
Procedure: as §1

Botrytis allii [12] = test: as above; format: cell-based; conditions: active principle 0.01 % by mass in potato-dextrose agar
Procedure: as §1

Aspergillus fumigatis [13] = test: as above; format: cell-based; conditions: active principle 0.01 % by mass in potato-dextrose agar
Procedure: as §1

Fusarium oxysporum [14] = test: as above; format: cell-based; conditions: active principle 0.01 % by mass in potato-dextrose agar
Procedure: as §1

Alternaria sobani [15] = test: as above; format: cell-based; conditions: active principle 0.01 % by mass in potato-dextrose agar
Procedure: as §1

Rhyzoctonia aderholdii [16] = test: as above; format: cell-based; conditions: active principle 0.01 % by mass in potato-dextrose agar
Procedure: as §1

Fusarium culmorum [17] = test: as above; format: cell-based; conditions: active principle 0.01 % by mass in potato-dextrose agar
Procedure: as §1

Diplodia zeae [18] = test: as above; format: cell-based; conditions: active principle 0.01 % by mass in potato-dextrose agar
Procedure: as §1

Rhoma betae [19] = test: as above; format: cell-based; conditions: active principle 0.01 % by mass in potato-dextrose agar
Procedure: as §1

Penicillium cyclopium [20] = test: as above; format: cell-based; conditions: active principle 0.01 % by mass in potato-dextrose agar
Procedure: as §1

Aspergillus niger [21] = test: Inhibition of phytopathogenic fungi, field test on affected potato plants; format: in vivo; conditions: 5 m^2 plots of affected potato plants sprayed
Text: as §2

Botrytis allii [22] = test: as above; format: in vivo; conditions: 5 m^2 plots of affected potato plants sprayed
Text: as §2

Aspergillus fumigatis [23] = test: as above; format: in vivo; conditions: 5 m^2 plots of affected potato plants sprayed
Text: as §2

Fusarium oxysporum [24] = test: as above; format: in vivo; conditions: 5 m^2 plots of affected potato plants sprayed
Text: as §2

Alternaria sobani [25] = test: as above; format: in vivo; conditions: 5 m^2 plots of affected potato plants sprayed
Text: as §2

Rhyzoctonia aderholdii [26] = test: as above; format: in vivo; conditions: 5 m^2 plots of affected potato plants sprayed
Text: as §2

Fusarium culmorum [27] = test: as above; format: in vivo; conditions: 5 m^2 plots of affected potato plants sprayed
Text: as §2

Diplodia zeae [28] = test: as above; format: in vivo; conditions: 5 m^2 plots of affected potato plants sprayed
Text: as §2

Rhoma betae [29] = test: as above; format: in vivo; conditions: 5 m^2 plots of affected potato plants sprayed
Text: as §2

Penicillium cyclopium [30] = test: as above; format: in vivo; conditions: 5 m^2 plots of affected potato plants sprayed
Text: as §2

Solubility (qualitative) = conditions: water, alcohols, acetone

**Q.** What does the source list for `O=C1C(Cl)=C(Cl)C(=O)c2ccccc21` [2,3-dichloro--1,4-naphtho-quinone, 2,3-dichloro-1,4-naphthoquinone, reference compound]?
**A.** Inhibition of growth of phytopathogenic fungi colonies, % Rhyzoctonia violaceae test laboratory (Rhyzoctonia violaceae [1]): 34%; Inhibition of growth of phytopathogenic fungi colonies, % Venturia inaequalis test laboratory (Venturia inaequalis [2]): 40%; Inhibition of growth of phytopathogenic fungi colonies, % Verticillium albo--atrum test laboratory (Verticillium albo-atrum [3]): 53%; Inhibition of growth of phytopathogenic fungi colonies, % Botrytis cinereae test laboratory (Botrytis cinereae [4]): 38%; Inhibition of growth of phytopathogenic fungi colonies, % Fusatium monili-forme test laboratory (Fusarium moniliforme [5]): 55%; Inhibition of growth of phytopathogenic fungi colonies, % Rhyzoctonia violaceae test field (Rhyzoctonia violaceae [6]): 32%; Inhibition of growth of phytopathogenic fungi colonies, % Venturia inaequalis test field (Venturia inaequalis [7]): 39%; Inhibition of growth of phytopathogenic fungi colonies, % Verticillium albo--atrum test field (Verticillium albo-atrum [8]): 52%; Inhibition of growth of phytopathogenic fungi colonies, % Botrytis cinereae test field (Botrytis cinereae [9]): 37%; Inhibition of growth of phytopathogenic fungi colonies, % Fusatium monili-forme test field (Fusarium moniliforme [10]): 54%

**Q.** With `COP(=O)(NC(=O)C(Cl)(Cl)CCl)Nc1ccccc1` (stereo not drawn) [Example 11, methyl α, α , β-trichloropropyonylamidophosphate monoanilide] as the molecule, how does the “Inhibition of growth of phytopathogenic fungi colonies, % Aspergillus niger test laboratory” value (Aspergillus niger [11]) read?
**A.** 100%

**Q.** And the “Inhibition of growth of phytopathogenic fungi colonies, % Botrytis allii test laboratory” value (Botrytis allii [12])?
**A.** 78%

**Q.** And the “Inhibition of growth of phytopathogenic fungi colonies, % Rhyzoctonia violaceae test laboratory” value (Rhyzoctonia violaceae [1])?
**A.** 62%

**Q.** And the “Inhibition of growth of phytopathogenic fungi colonies, % Aspergillus fumigatis Tests laboratory” value (Aspergillus fumigatis [13])?
**A.** 93%

**Q.** What about the “Inhibition of growth of phytopathogenic fungi colonies, % Fusarium oxysporum test laboratory” value (Fusarium oxysporum [14]) of the same molecule?
**A.** 62%

**Q.** What about the “Inhibition of growth of phytopathogenic fungi colonies, % Alternaria sobani test laboratory” value (Alternaria sobani [15]) of the same molecule?
**A.** 69%

**Q.** And the “Inhibition of growth of phytopathogenic fungi colonies, % Rhyzoctonia aderholdii test laboratory” value (Rhyzoctonia aderholdii [16])?
**A.** 100%

**Q.** And the “Inhibition of growth of phytopathogenic fungi colonies, % Venturia inaequalis test laboratory” value (Venturia inaequalis [2])?
**A.** 54%

**Q.** And the “Inhibition of growth of phytopathogenic fungi colonies, % Fusarium culmorum Tests laboratory” value (Fusarium culmorum [17])?
**A.** 100%

**Q.** And the “Inhibition of growth of phytopathogenic fungi colonies, % Diplodia zeae test laboratory” value (Diplodia zeae [18])?
**A.** 100%

**Q.** And the “Inhibition of growth of phytopathogenic fungi colonies, % Verticillium albo--atrum test laboratory” value (Verticillium albo-atrum [3])?
**A.** 56%

**Q.** What about the “Inhibition of growth of phytopathogenic fungi colonies, % Rhoma betae test laboratory” value (Rhoma betae [19]) of the same molecule?
**A.** 67%

**Q.** What about the “Inhibition of growth of phytopathogenic fungi colonies, % Penicillium cyclopium Tests laboratory” value (Penicillium cyclopium [20]) of the same molecule?
**A.** 95%

**Q.** What about the “Inhibition of growth of phytopathogenic fungi colonies, % Botrytis cinereae test laboratory” value (Botrytis cinereae [4]) of the same molecule?
**A.** 43%

**Q.** And the “Inhibition of growth of phytopathogenic fungi colonies, % Fusatium monili-forme test laboratory” value (Fusarium moniliforme [5])?
**A.** 39%

**Q.** And the “Inhibition of growth of phytopathogenic fungi colonies, % Aspergillus niger test field” value (Aspergillus niger [21])?
**A.** 96%

**Q.** And the “Inhibition of growth of phytopathogenic fungi colonies, % Botrytis allii test field” value (Botrytis allii [22])?
**A.** 78%

**Q.** And the “Inhibition of growth of phytopathogenic fungi colonies, % Rhyzoctonia violaceae test field” value (Rhyzoctonia violaceae [6])?
**A.** 60%

**Q.** What about the “Inhibition of growth of phytopathogenic fungi colonies, % Aspergillus fumigatis Tests field” value (Aspergillus fumigatis [23]) of the same molecule?
**A.** 93%

**Q.** And the “Inhibition of growth of phytopathogenic fungi colonies, % Fusarium oxysporum test field” value (Fusarium oxysporum [24])?
**A.** 60%

**Q.** What about the “Inhibition of growth of phytopathogenic fungi colonies, % Alternaria sobani test field” value (Alternaria sobani [25]) of the same molecule?
**A.** 66%

**Q.** And the “Inhibition of growth of phytopathogenic fungi colonies, % Rhyzoctonia aderholdii test field” value (Rhyzoctonia aderholdii [26])?
**A.** 100%

**Q.** What about the “Inhibition of growth of phytopathogenic fungi colonies, % Venturia inaequalis test field” value (Venturia inaequalis [7]) of the same molecule?
**A.** 52%

**Q.** And the “Inhibition of growth of phytopathogenic fungi colonies, % Fusarium culmorum Tests field” value (Fusarium culmorum [27])?
**A.** 98%

**Q.** What about the “Inhibition of growth of phytopathogenic fungi colonies, % Diplodia zeae test field” value (Diplodia zeae [28]) of the same molecule?
**A.** 98%

**Q.** And the “Inhibition of growth of phytopathogenic fungi colonies, % Verticillium albo--atrum test field” value (Verticillium albo-atrum [8])?
**A.** 54%

**Q.** And the “Inhibition of growth of phytopathogenic fungi colonies, % Rhoma betae test field” value (Rhoma betae [29])?
**A.** 65%

**Q.** What about the “Inhibition of growth of phytopathogenic fungi colonies, % Penicillium cyclopium Tests field” value (Penicillium cyclopium [30]) of the same molecule?
**A.** 90%

**Q.** And the “Inhibition of growth of phytopathogenic fungi colonies, % Botrytis cinereae test field” value (Botrytis cinereae [9])?
**A.** 39%

**Q.** What about the “Inhibition of growth of phytopathogenic fungi colonies, % Fusatium monili-forme test field” value (Fusarium moniliforme [10]) of the same molecule?
**A.** 38%

**Q.** And the solubility (Solubility (qualitative))?
**A.** soluble in water, alcohols, acetone
